# Molecular target: T1, FicD^WT (Homo sapiens, UniProt Q9BVA6)
# T1 construct: soluble ER luminal domain (residues 105 to 458) of wild-type human FicD; 6xHis-Sumo (N, cleaved yes); made in house; host or cells: Rosetta(DE3) E. coli
# T1 sequence (Q9BVA6 105-458): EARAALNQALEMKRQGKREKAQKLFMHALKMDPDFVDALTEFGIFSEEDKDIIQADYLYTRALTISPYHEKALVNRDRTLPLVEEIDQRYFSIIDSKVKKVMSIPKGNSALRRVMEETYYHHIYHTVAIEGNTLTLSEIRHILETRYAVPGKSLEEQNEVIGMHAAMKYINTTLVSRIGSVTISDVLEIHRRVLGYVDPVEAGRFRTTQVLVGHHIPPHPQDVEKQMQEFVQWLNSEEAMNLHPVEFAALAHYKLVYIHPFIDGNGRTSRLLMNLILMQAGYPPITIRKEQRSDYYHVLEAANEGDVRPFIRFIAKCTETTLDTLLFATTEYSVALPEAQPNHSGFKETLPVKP
# Assay: Total (intact) mass analysis of FicD^WT incubated with FPP
# Details: 50uM FPP, 5mM MgCl2
# Excerpt: To reveal the mechanism of FicD inhibition by FPP, we leveraged the FicD^E234G mutant for structural studies. We soaked FPP into crystals of the FicD^E234G variant and solved the ligand-bound structure (Fig. 5 A and B). […] The diphosphate group of FPP closely overlapped with the ADP diphosphate when superimposed with a FicD^E234G-ADP structure (Fig. 5 A, Left), and the hydrophobic isoprenyl groups of FPP overlap with the nucleoside in the active site binding pocket (Fig. 5 A, Right). The FPP diphosphate binds directly to the side chains of N369, R371, with the sidechain of D367 coordinating the Mg^2+ (Fig. 5B). These interactions mimic those observed between ADP/ATP and FicD ([26]). […] As previously noted, only GPP and FPP could bind to and inhibit FicD, but analogs of the isoprenoid-pyrophosphate metabolites (geraniol, GMP, farnesol, FMP, DMAPP, and MVAPP) could not (Fig. 2 B–D). Together, these observations indicate both the pyrophosphate head and the long isoprenoid tail of GPP/FPP contribute to the binding with FicD. […]
# Intact mass analysis of proteins was performed by the UT Southwestern Proteomics Core. Intact protein samples were analyzed by LC/MS, using a Sciex X500B QTOF mass spectrometer operating in positive ion mode, coupled to an Agilent 1290 Infinity II HPLC. […]
smiles,measurement,value
"CC(C)=CCC/C(C)=C/CC/C(C)=C/COP(=O)(O)OP(=O)(O)O [FPP, farnesyl-pyrophosphate]",mass shift associated with putative FPP automodification,no mass shift

# From paper PMC12974487, “Inhibition of FicD-mediated AMPylation and deAMPylation by isoprenoid diphosphates” (Proceedings of the National Academy of Sciences of the …, 2026)
